Experimental data taken from patent US20240366589A1, “NHE3-BINDING COMPOUNDS AND METHODS FOR INHIBITING PHOSPHATE TRANSPORT” (Ardelyx, Inc., priority 2013, published 2024).

Tests used:
Rat NHE3 = biological target: T1, Rat NHE3 (Rattus norvegicus, UniProt P26433); assay: Cell-based NHE3 activity under prompt conditions (OK cells, BCECF pH recovery), rat NHE3; conditions: prompt conditions
T1 construct: expressed in transfected cells; host or cells: Opossum kidney (OK) cells (ATCC), electroporation
Procedure, shortened: (§1)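 Fluorometric NHE3 antiport assay in opossum kidney cells carrying rat or human NHE3, using BCECF pH recovery after NH4Cl-prepulse acid loading. pIC50 values derive from initial rates averaged across at least two replicates.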

Human NHE3 = biological target: T2, Human NHE3 (Homo sapiens, UniProt P48764); assay: Cell-based NHE3 activity under prompt conditions (OK cells, BCECF pH recovery), human NHE3; conditions: prompt conditions
T2 construct: expressed in transfected cells; host or cells: Opossum kidney (OK) cells (ATCC), electroporation
T2 sequence (P48764 26-834): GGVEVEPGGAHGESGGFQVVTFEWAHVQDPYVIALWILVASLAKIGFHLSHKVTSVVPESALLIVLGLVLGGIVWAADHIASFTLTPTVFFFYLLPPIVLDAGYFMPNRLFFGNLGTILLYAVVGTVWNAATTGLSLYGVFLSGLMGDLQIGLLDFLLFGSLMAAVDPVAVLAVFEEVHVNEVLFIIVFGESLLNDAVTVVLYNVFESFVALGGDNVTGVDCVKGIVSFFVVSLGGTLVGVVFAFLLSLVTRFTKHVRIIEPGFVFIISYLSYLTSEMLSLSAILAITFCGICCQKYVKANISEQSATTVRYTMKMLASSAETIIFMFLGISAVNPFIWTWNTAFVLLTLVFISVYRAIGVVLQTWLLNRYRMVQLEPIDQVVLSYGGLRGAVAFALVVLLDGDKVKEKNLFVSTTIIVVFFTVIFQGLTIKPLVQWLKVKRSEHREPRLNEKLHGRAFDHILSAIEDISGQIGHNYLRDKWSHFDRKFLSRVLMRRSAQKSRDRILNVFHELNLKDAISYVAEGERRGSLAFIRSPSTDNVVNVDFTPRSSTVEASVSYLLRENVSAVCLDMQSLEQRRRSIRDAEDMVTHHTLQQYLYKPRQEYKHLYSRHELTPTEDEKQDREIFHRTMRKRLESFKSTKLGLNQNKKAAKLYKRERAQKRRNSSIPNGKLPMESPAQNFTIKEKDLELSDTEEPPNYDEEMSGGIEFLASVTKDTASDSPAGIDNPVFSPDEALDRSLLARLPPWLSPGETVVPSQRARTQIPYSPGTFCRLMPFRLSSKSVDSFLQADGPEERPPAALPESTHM
Procedure, shortened: as §1

[1] = test system: absorption of sodium from the intestinal lumen; assay: Inhibition of intestinal sodium absorption: urinary sodium (uNa) 16 h after single oral dose in rats; format: in vivo, rat; conditions: oral gavage, 16 h post-dose
Procedure, shortened: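 Urinary sodium mass over the 16 h after one oral gavage dose, measured by cation-exchange ion chromatography, reported as percent of water-vehicle group; ANOVA plus Dunnett's post hoc test. Groups of six 8-week-old Sprague-Dawley rats, housed individually in metabolic cages post-dose, fed and watered freely.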

[2] = test system: absorption of sodium from the intestinal lumen; assay: Fecal form score (FFS) 16 h after oral dose in rats; format: in vivo, rat; conditions: oral gavage, 16 h post-dose, scale 1-5
Procedure, shortened: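 Fecal form was scored at 16 h post-dose on a 1–5 wetness scale (normal pellet to liquid stream), with two independent observations averaged across six rats per group. Animals were 8-week-old Sprague-Dawley rats given test compound or water orally in the late afternoon and kept in metabolic cages.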

[3] = test system: phosphorus and calcium levels in the urine of rats; assay: Urinary excretion of phosphate and calcium in rats (16 h overnight urine); format: in vivo, rat; conditions: rats, oral gavage, 16 h post-dose

T1 sequence (P26433 29-831): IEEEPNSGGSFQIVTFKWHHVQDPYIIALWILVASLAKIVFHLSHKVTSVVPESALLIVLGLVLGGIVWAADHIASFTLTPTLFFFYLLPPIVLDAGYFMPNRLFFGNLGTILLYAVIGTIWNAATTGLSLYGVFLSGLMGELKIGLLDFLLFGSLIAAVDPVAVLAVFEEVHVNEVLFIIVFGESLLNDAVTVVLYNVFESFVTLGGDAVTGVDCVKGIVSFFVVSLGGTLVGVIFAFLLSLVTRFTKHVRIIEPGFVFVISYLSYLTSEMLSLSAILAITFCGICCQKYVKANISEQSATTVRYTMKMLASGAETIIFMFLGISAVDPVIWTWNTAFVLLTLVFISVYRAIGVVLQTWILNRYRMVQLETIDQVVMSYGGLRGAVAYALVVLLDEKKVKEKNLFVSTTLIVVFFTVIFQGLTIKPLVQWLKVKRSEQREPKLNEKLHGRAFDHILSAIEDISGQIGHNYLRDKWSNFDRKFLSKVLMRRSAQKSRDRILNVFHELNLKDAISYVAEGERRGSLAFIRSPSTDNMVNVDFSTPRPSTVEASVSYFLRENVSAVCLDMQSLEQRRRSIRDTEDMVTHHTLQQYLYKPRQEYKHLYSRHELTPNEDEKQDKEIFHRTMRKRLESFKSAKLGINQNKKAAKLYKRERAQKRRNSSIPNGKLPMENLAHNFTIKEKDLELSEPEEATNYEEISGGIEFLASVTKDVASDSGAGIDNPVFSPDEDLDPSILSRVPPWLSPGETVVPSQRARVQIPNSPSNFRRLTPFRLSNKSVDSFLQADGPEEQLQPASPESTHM

Row | Compound | Prompt Rat NHE3 pIC50 (Rat NHE3) | Prompt Human NHE3 pIC50 (Human NHE3) | Urine Na % of control ([1]; dose 10 mg/kg) | Fecal Form Score average ([2]; dose 10 mg/kg) | Urine P % of control ([3]; dose 10 mg/kg) | IC50 (Human NHE3; read-out: Prompt Human NHE3 pIC50 (converted)) | Urine Na % of control ([1]; dose 1 mg/kg) | Urine Na % of control ([1]; dose 3 mg/kg) | Fecal Form Score average ([2]; dose 1 mg/kg) | Fecal Form Score average ([2]; dose 3 mg/kg) | Urine P % of control ([3]; dose 1 mg/kg) | Urine P % of control ([3]; dose 3 mg/kg)
1 | CCC(=O)NC(CCC(=O)NCCOCCOCCOCCNS(=O)(=O)c1cccc([C@@H]2CN(C)Cc3c(Cl)cc(Cl)cc32)c1)(CCC(=O)NCCOCCOCCOCCNS(=O)(=O)c1cccc([C@@H]2CN(C)Cc3c(Cl)cc(Cl)cc32)c1)CCC(=O)NCCOCCOCCOCCNS(=O)(=O)c1cccc([C@@H]2CN(C)Cc3c(Cl)cc(Cl)cc32)c1 [compound 89] | 7.10 | 7.90 | 49% | 3 | 117% | – | – | – | – | – | – | –
2 | N=C(N)Nc1nc(-c2cccc(S(=O)(=O)NCCOCCOCCOCCN)c2)c2cc(Cl)ccc2n1 [compound 12] | 6.10 | 7.00 | 82% | 1 | 94% | – | – | – | – | – | – | –
3 | O=C(NCCCCNC(=O)NCCOCCOCCNS(=O)(=O)c1ccc(O[C@H]2c3ccccc3C[C@@H]2N2CCCC2)cc1)NCCOCCOCCNS(=O)(=O)c1ccc(O[C@H]2c3ccccc3C[C@@H]2N2CCCC2)cc1 [compound 99] | 8.60 | – | 41% | 1 | 52% | ≥ 10 µM | – | – | – | – | – | –
4 | CN1Cc2c(Cl)cc(Cl)cc2[C@H](c2cccc(S(=O)(=O)NCCOCCOCCNC(=O)CCC(CCC(=O)NCCOCCOCCNS(=O)(=O)c3cccc([C@@H]4CN(C)Cc5c(Cl)cc(Cl)cc54)c3)(CCC(=O)NCCOCCOCCNS(=O)(=O)c3cccc([C@@H]4CN(C)Cc5c(Cl)cc(Cl)cc54)c3)NC(=O)CCCC(=O)O)c2)C1 [compound 137] | 7.30 | 7.30 | – | – | – | – | 39% | 28% | 1 | 3 | 137% | 139%
5 | CN1Cc2c(Cl)cc(Cl)cc2[C@H](c2cccc(S(=O)(=O)NCCOCCOCCNC(=O)CCC(CCC(=O)NCCOCCOCCNS(=O)(=O)c3cccc([C@@H]4CN(C)Cc5c(Cl)cc(Cl)cc54)c3)(CCC(=O)NCCOCCOCCNS(=O)(=O)c3cccc([C@@H]4CN(C)Cc5c(Cl)cc(Cl)cc54)c3)NC(=O)N[C@@H](CO)C(=O)O)c2)C1 [compound 163] | 7.90 | 7.60 | – | – | – | – | – | 27% | – | 2 | – | 48%
6 | CN1Cc2c(Cl)cc(Cl)cc2[C@H](c2cccc(S(=O)(=O)NCCOCCOCCNC(=O)CCC(CCC(=O)NCCOCCOCCNS(=O)(=O)c3cccc([C@@H]4CN(C)Cc5c(Cl)cc(Cl)cc54)c3)(CCC(=O)NCCOCCOCCNS(=O)(=O)c3cccc([C@@H]4CN(C)Cc5c(Cl)cc(Cl)cc54)c3)NC(=O)Cc3nnn[nH]3)c2)C1 [compound 156] | 6.70 | 7.20 | – | – | – | – | – | 13% | – | 3 | – | 67%
7 | CC(=O)C(CCC(=O)NCCOCCOCCNS(=O)(=O)c1cccc([C@@H]2CN(C)Cc3c(Cl)cc(Cl)cc32)c1)(CCC(=O)NCCOCCOCCNS(=O)(=O)c1cccc([C@@H]2CN(C)Cc3c(Cl)cc(Cl)cc32)c1)CCC(=O)NCCOCCOCCNS(=O)(=O)c1cccc([C@@H]2CN(C)Cc3c(Cl)cc(Cl)cc32)c1 [compound 169] | 6.50 | 6.20 | – | – | – | – | – | 42% | – | 2 | – | 64%
8 | O=C(NCCOCCOCCNS(=O)(=O)c1ccc(O[C@H]2c3ccccc3C[C@@H]2N2CCCCC2)cc1)c1ccc(C(=O)NCCOCCOCCNS(=O)(=O)c2ccc(O[C@H]3c4ccccc4C[C@@H]3N3CCCCC3)cc2)cc1 [compound 100] | 8.10 | 8.30 | 57% | 1 | 68% | – | – | – | – | – | – | –
9 | CN1Cc2c(Cl)cc(Cl)cc2[C@H](c2cccc(S(=O)(=O)NCCOCCOCCNC(=O)CCC(CCC(=O)NCCOCCOCCNS(=O)(=O)c3cccc([C@@H]4CN(C)Cc5c(Cl)cc(Cl)cc54)c3)(CCC(=O)NCCOCCOCCNS(=O)(=O)c3cccc([C@@H]4CN(C)Cc5c(Cl)cc(Cl)cc54)c3)NC(=O)COCC(=O)O)c2)C1 [compound 139] | 7.60 | 7.80 | – | – | – | – | 80% | 27% | 1 | 3 | 63% | 45%
10 | C/C(=C\c1cc(F)c(Oc2ccc(S(=O)(=O)NCCOCCOCCOCCNC(=O)CN(C)CC(=O)NCCOCCOCCOCCNS(=O)(=O)c3ccc(Oc4c(F)cc(/C=C(\C)C(=O)N=C(N)N)cc4F)cc3)cc2)c(F)c1)C(=O)N=C(N)N [compound 9] | 6.50 | 7.10 | 56% | 1 | 77% | – | – | – | – | – | – | –
11 | N=C(N)Nc1nc(-c2ccc(OCCOCCOCCOCCNC(=O)NCCOCCOCCNC(=O)NCCCCNC(=O)NCCOCCOCCNC(=O)NCCOCCOCCOCCOc3ccc(-c4nc(NC(=N)N)nc5ccc(Cl)cc45)cc3)cc2)c2cc(Cl)ccc2n1 [compound 36] | 7.60 | 8.00 | 85% | 1 | 86% | – | – | – | – | – | – | –
12 | N=C(N)Nc1nc(-c2ccc(N3CCN(CCOCCOCCOCCNC(=O)NCCOCCOCCNC(=O)NCCOCCOCCOCCN4CCN(c5ccc(-c6nc(NC(=N)N)nc7ccc(Cl)cc67)cc5)CC4)CC3)cc2)c2cc(Cl)ccc2n1 [compound 20] | 7.30 | 7.20 | 86% | 1 | 81% | – | – | – | – | – | – | –
13 | CN1Cc2c(Cl)cc(Cl)cc2[C@H](c2cccc(S(=O)(=O)NCCOCCOCCNC(=O)CCC(CCC(=O)NCCOCCOCCNS(=O)(=O)c3cccc([C@@H]4CN(C)Cc5c(Cl)cc(Cl)cc54)c3)(CCC(=O)NCCOCCOCCNS(=O)(=O)c3cccc([C@@H]4CN(C)Cc5c(Cl)cc(Cl)cc54)c3)NC(=O)NC(CO)CO)c2)C1 [compound 178] | 7.10 | 7.33 | – | – | – | – | – | 18% | – | 3 | – | 46%
